We go through five compounds from ChEMBL document CHEMBL1201862, “PubChem BioAssay data set” (2004).

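Step 1: Grow cells in 96-well plates. Step 2: Expose to compound for 48 hours at 5 concentrations. Step 3: Interpolate endpoints linearly; if unreached, use highest concentration. Abbreviation: GI50, concentration required for 50% inhibition of growth.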 Active and inactive are the calls of the source. Cut-off read from the data, not from the text of the source: active = GI50 up to about 1.1 µM and inactive = higher. Bounds are passed on as bounds.

Common to all, as to assay: NCI tumour cell line growth inhibition, 48 h
In assay [1] the test system is U-251.
Assay [2] deals with LOX IMVI.
Assay [3] has as its system KM12.
Assay [4] relates to UACC-257.
Assay [5] concerns OVCAR-3.
For assay [6], the system named is HCT-116.
The test system of assay [7] is NCI-H23.
For assay [8], the system named is HOP-62.
In assay [9] the test system is ACHN.
For assay [10], the system named is Malme-3M.
Assay [11] deals with HCT-15.
In assay [12] the test system is SW-620.
Assay [13] concerns NCI-H460.
Assay [14] relates to MDA-MB-231.
Assay [15] relates to SF-295.
The test system of assay [16] is SR.
For assay [17], the system named is MCF7.
Assay [18] deals with SK-MEL-28.
Assay [19] deals with RPMI-8226.
In assay [20] the test system is HL-60.

In the case of `O=C1c2ccccc2C(=O)c2c(Nc3ccc4c5c(cccc35)C(=O)c3ccccc3-4)cccc21`, the GI50 in [1], in [2], in assay [3], in [4], in assay [5] and in assay [6] was > 100 µM (inactive) each time. Moreover, the GI50 was > 100 µM (inactive) in assay [7]; > 100 µM (inactive) in assay [8]; > 100 µM (inactive) in assay [9]; > 100 µM (inactive) in assay [10]; > 100 µM in [11]; > 100 µM (inactive) in [12]. Besides, the GI50 in assay [13], in assay [14], in assay [15] and in assay [16] was > 100 µM (inactive) throughout.

Regarding `C=Cn1c([N+](=O)[O-])cnc1/C=C/c1ccc(C(=O)OCCN2CCOCC2)cc1`, the GI50 in assay [1], in [2], in assay [3], in assay [4], in assay [5] and in assay [6] was > 100 µM (inactive) in each case. Also, the GI50 in [7] was > 100 µM (inactive); in assay [8], > 100 µM (inactive); in [9], > 100 µM (inactive); in assay [10], 61 µM (inactive); in assay [11] it was > 100 µM; in [12], > 100 µM (inactive). Besides, the GI50 was > 100 µM (inactive) in assay [17]; > 100 µM (inactive) in [13]; > 100 µM (inactive) in assay [14]; > 100 µM (inactive) in assay [15]; > 100 µM (inactive) in assay [18]; 12 µM (inactive) in assay [19].

As to `CC(=O)C(CN1C(=O)c2ccccc2C1=O)C(C)=O`, the GI50 in assay [1], in assay [4], in assay [5], in [6], in assay [7] and in assay [8] was > 100 µM (inactive) throughout. The GI50 in assay [9] is > 100 µM (inactive); in assay [11], > 100 µM; in assay [12], > 100 µM (inactive); in assay [17], > 100 µM (inactive); in assay [13] it was > 100 µM (inactive); in [14], > 100 µM (inactive). The GI50 in [15] and in assay [18] was > 100 µM (inactive) each time.

On to `C=C1C(=O)O[C@@H]2[C@H]1C[C@@H](O)[C@H](C)[C@@](O)(C(=O)/C=C/C)[C@H]2OC(=O)C(C)CC` (stereo not given in full), for which the GI50 in [1] was 11.2 µM (inactive); in assay [2] it was 2.93 µM (inactive); in assay [3] it was 14.8 µM (inactive); in [4] it was 3.1 µM (inactive); in [5], 3.26 µM (inactive); in assay [6] it was 1.84 µM (inactive). The GI50 was 5.31 µM (inactive) in assay [7]; 21 µM (inactive) in [8]; 2.99 µM (inactive) in assay [9]; 2 µM (inactive) in assay [10]; 2.44 µM in assay [11]; 2.42 µM (inactive) in [12]. The GI50 in assay [17] is 4.81 µM (inactive); in [13], 28.8 µM (inactive); in [14], 5.79 µM (inactive); in [15], 37.5 µM (inactive); in assay [18], 7.85 µM (inactive); in assay [19] it was 1.72 µM (inactive).

As for `Cn1c(=N)n[n+]([O-])c2ccccc21`, the GI50 in assay [1] was 12.3 µM (inactive); in assay [2], 1.62 µM (inactive); in [3] it was 19.9 µM (inactive); in assay [4] it was 2.71 µM (inactive); in assay [5] it was 0.895 µM (active); in assay [6], 3.78 µM (inactive). Moreover, the GI50 was 2.07 µM (inactive) in [7]; 2.45 µM (inactive) in assay [8]; 4.9 µM (inactive) in assay [9]; 2.79 µM (inactive) in assay [20]; 2.12 µM (inactive) in [12]; 2.18 µM (inactive) in [17]. Moreover, the GI50 is 9.42 µM (inactive) in assay [14] and 2.98 µM (inactive) in [15].
